Results reported in US20080274892A1, “Novel Haloalkylsulfonanilide Derivative, Herbicide, and Method of Use Thereof” (priority 2005, published 2008).

Tests used:
false pimpernel [1] = assay: Test Example 1: herbicidal efficacy on rice paddy weeds pre-emergence; format: in vivo, Lindernia pyxidaria; conditions: 21 days
bulrush [2] = assay: as above; format: in vivo, Scirpus juncoides; conditions: 21 days
bulrush [3] = assay: Test Example 2: herbicidal efficacy on rice paddy weeds post-emergence; format: in vivo, Scirpus juncoides; conditions: post-emergence, one leaf stage, 21 days after treatment
bulrush [4] = assay: Test Example 4: low dosage test for rice paddy weeds; format: in vivo, Scirpus juncoides; conditions: 300 g/ha as an active ingredient; plants treated at the one leaf stage; 21 days after treatment; vs untreated control
Outline: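 Bulrush sown in clay loam pots, flooded to 5 cm water in a hot house, treated at the one-leaf stage with formulated compound at 300 g/ha. Efficacy scored 0–4 against untreated control 21 days after treatment (4 = 90–100%, 0 = 0% inhibition).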

barnyard glass = assay: Test Example 2: herbicidal efficacy on rice paddy weeds post-emergence; format: in vivo, Echinochloa crus-galli; conditions: post-emergence, one leaf stage, 21 days after treatment
Outline: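 Plastic pots of 75 cm^2 were filled with clay loam soil and sown with barnyard glass and bulrush seeds, then topped with 75 cm^3 soil containing false pimpernel seeds. The pots were flooded to 5 cm water depth and held in a hot house. Twenty-one days after treatment, herbicidal efficacy was graded against an untreated control.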

false pimpernel [5] = assay: as above; format: in vivo, Lindernia pyxidaria; conditions: post-emergence, one leaf stage, 21 days after treatment
[6] = system: paddy rice plant (cultivar: Nihonbare); assay: Test Example 3: phytotoxicity test for transplanted paddy rice plant; format: in vivo; conditions: transplanted rice, 21 days after treatment
Outline: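 Clay loam soil was placed in a 75 cm^2 plastic pot and flooded to a water depth of 5 cm. Two Nihonbare paddy rice plants at the two-leaf stage were transplanted 1 cm deep and grown in a hot house. After treatment, pots stayed in the hot house for 21 days, and phytotoxicity was then graded against an untreated control.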

[7] = system: transplanted paddy rice plant and Bulrush; assay: Test Example 5: selectivity between transplanted paddy rice plant and weeds; format: in vivo; conditions: (highest dosage with no phytotoxicity to paddy rice)/(lowest dosage with effective level 4 on Bulrush); rice 3000-100 g/ha, Bulrush 300-10 g/ha; 21 days
Outline: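 Transplanted paddy rice was treated at 3000, 1000, 300 and 100 g/ha active ingredient for phytotoxicity, and post-emergence bulrush at 300, 100, 30 and 10 g/ha. Plants were kept in a hothouse for 21 days. Growth inhibition versus untreated control was scored 0–4 (0%, 1–39%, 40–69%, 70–89%, 90–100%).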

[8] = dosage 1000 g/ha, treated 5 days after transplantation

Compound	melting point	False pimpernel pre (herbicidal efficacy grade) (false pimpernel [1]; dosage 1000 g/ha)	Bulrush pre (herbicidal efficacy grade) (bulrush [2]; dosage 1000 g/ha)	Bulrush post (herbicidal efficacy grade) (bulrush [3]; dosage 1000 g/ha)	Herbicide effect to Bulrush (bulrush [4])	Burnyard grass post (herbicidal efficacy grade) (barnyard glass; dosage 1000 g/ha)	False pimpernel post (herbicidal efficacy grade) (false pimpernel [5]; dosage 1000 g/ha)	Phytotoxicity to paddy rice [6, 8]	Selective Index [7]	False pimpernel pre (herbicidal efficacy grade) (false pimpernel [1]; dosage 300 g/ha)	Bulrush pre (herbicidal efficacy grade) (bulrush [2]; dosage 300 g/ha)	Bulrush post (herbicidal efficacy grade) (bulrush [3]; dosage 300 g/ha)	Burnyard grass post (herbicidal efficacy grade) (barnyard glass; dosage 300 g/ha)	False pimpernel post (herbicidal efficacy grade) (false pimpernel [5]; dosage 300 g/ha)	Phytotoxicity to paddy rice ([6]; dosage 300 g/ha)
CC1(C)CN(Cc2ccccc2NS(=O)(=O)C(F)(F)F)C(=O)S1 [Compound No. 1-184, 5,5-dimethyl-3-[2-(trifluoromethanesulfonylamino)benzyl]thiazolidin-2-one]	115 to 117.5 °C	4 (90%-100% of herbicidal efficacy or phytotoxicity)	4 (90%-100% of herbicidal efficacy or phytotoxicity)	4 (90%-100% of herbicidal efficacy or phytotoxicity)	4 (90%-100% of herbicidal efficacy or phytotoxicity)	4 (90%-100% of herbicidal efficacy or phytotoxicity)	4 (90%-100% of herbicidal efficacy or phytotoxicity)	1 (1%-39% of herbicidal efficacy or phytotoxicity)	10	–	–	–	–	–	–
CCC1CN(Cc2ccccc2N(C(=O)OCC(C)C)S(=O)(=O)C(F)(F)F)C(=O)O1 (centres unmarked) [Compound No. 1-24, 5-ethyl-3-{2-[N-(isobutoxycarbonyl)-N-(trifluoromethanesulfonyl)amino]benzyl}-2-oxazolidinone]	85 to 87 °C	4 (90%-100% of herbicidal efficacy or phytotoxicity)	4 (90%-100% of herbicidal efficacy or phytotoxicity)	4 (90%-100% of herbicidal efficacy or phytotoxicity)	4 (90%-100% of herbicidal efficacy or phytotoxicity)	4 (90%-100% of herbicidal efficacy or phytotoxicity)	4 (90%-100% of herbicidal efficacy or phytotoxicity)	0 (0% of herbicidal efficacy or phytotoxicity)	33	–	–	–	–	–	–
Cc1cn(Cc2ccccc2NS(=O)(=O)C(F)(F)F)c(=O)o1 [Compound No. 1-207, 5-methyl-3-[2-(trifluoromethanesulfonylamino)benzyl]-4-oxazolin-2-one]	120.2 to 121.2 °C	–	–	–	–	–	–	–	–	4 (90%-100% of herbicidal efficacy or phytotoxicity)	4 (90%-100% of herbicidal efficacy or phytotoxicity)	4 (90%-100% of herbicidal efficacy or phytotoxicity)	0 (0% of herbicidal efficacy or phytotoxicity)	1 (1%-39% of herbicidal efficacy or phytotoxicity)	1 (1%-39% of herbicidal efficacy or phytotoxicity)
CCC1COC(=O)N1Cc1ccccc1NS(=O)(=O)C(F)(F)F (centres unmarked) [Compound No. 1-5, 4-ethyl-3-[2-(trifluoromethanesulfonylamino)benzyl]-2-oxazolidinone]	81.4 to 83.6 °C	4 (90%-100% of herbicidal efficacy or phytotoxicity)	4 (90%-100% of herbicidal efficacy or phytotoxicity)	4 (90%-100% of herbicidal efficacy or phytotoxicity)	4 (90%-100% of herbicidal efficacy or phytotoxicity)	4 (90%-100% of herbicidal efficacy or phytotoxicity)	4 (90%-100% of herbicidal efficacy or phytotoxicity)	2 (40%-69% of herbicidal efficacy or phytotoxicity)	≧10	–	–	–	–	–	–
Cc1cn(Cc2ccccc2N(C(=O)OCC(C)C)S(=O)(=O)C(F)(F)F)c(=O)o1 [Compound No. 1-208, 3-{2-[N-(isobutoxycarbonyl)-N-(trifluoromethanesulfonyl)amino]benzyl}-5-methyl-4-oxazolin-2-one]	60.3 to 68.6 °C	–	–	–	–	–	–	–	–	4 (90%-100% of herbicidal efficacy or phytotoxicity)	4 (90%-100% of herbicidal efficacy or phytotoxicity)	4 (90%-100% of herbicidal efficacy or phytotoxicity)	–	1 (1%-39% of herbicidal efficacy or phytotoxicity)	0 (0% of herbicidal efficacy or phytotoxicity)
CC1CN(Cc2ccccc2NS(=O)(=O)C(F)(F)F)C(=S)O1 (centres unmarked) [Compound No. 1-21, 5-methyl-3-[2-(trifluoromethanesulfonylamino)benzyl]-2-oxazolidinethione]	74 to 76 °C	4 (90%-100% of herbicidal efficacy or phytotoxicity)	4 (90%-100% of herbicidal efficacy or phytotoxicity)	4 (90%-100% of herbicidal efficacy or phytotoxicity)	4 (90%-100% of herbicidal efficacy or phytotoxicity)	4 (90%-100% of herbicidal efficacy or phytotoxicity)	3 (70%-89% of herbicidal efficacy or phytotoxicity)	0 (0% of herbicidal efficacy or phytotoxicity)	33	–	–	–	–	–	–
CC1(C)OC(=O)N(Cc2ccccc2NS(=O)(=O)C(F)(F)F)C1O (centres unmarked) [Compound No. 1-194, 4-hydroxy-5,5-dimethyl-3-[2-(trifluoromethanesulfonylamino)benzyl]oxazolidin-2-one]	88 to 92 °C	–	–	–	–	–	–	–	–	–	–	–	–	–	–
CCC1COC(=O)N1Cc1ccccc1N(C(=O)OCC(C)C)S(=O)(=O)C(F)(F)F (centres unmarked) [Compound No. 1-6, 4-ethyl-3-{2-[N-(isobutoxycarbonyl)-N-(trifluoromethanesulfonyl)amino]benzyl}-2-oxazolidinone]	69.3 to 71.7 °C	4 (90%-100% of herbicidal efficacy or phytotoxicity)	4 (90%-100% of herbicidal efficacy or phytotoxicity)	4 (90%-100% of herbicidal efficacy or phytotoxicity)	3 (70%-89% of herbicidal efficacy or phytotoxicity)	4 (90%-100% of herbicidal efficacy or phytotoxicity)	4 (90%-100% of herbicidal efficacy or phytotoxicity)	1 (1%-39% of herbicidal efficacy or phytotoxicity)	3	–	–	–	–	–	–
CC1COC(=O)N1Cc1ccccc1NS(=O)(=O)C(F)(F)F (centres unmarked) [1-3]	–	4 (90%-100% of herbicidal efficacy or phytotoxicity)	4 (90%-100% of herbicidal efficacy or phytotoxicity)	4 (90%-100% of herbicidal efficacy or phytotoxicity)	4 (90%-100% of herbicidal efficacy or phytotoxicity)	4 (90%-100% of herbicidal efficacy or phytotoxicity)	4 (90%-100% of herbicidal efficacy or phytotoxicity)	4 (90%-100% of herbicidal efficacy or phytotoxicity)	3.3	–	–	–	–	–	–
CC(C)COC(=O)N(c1ccccc1CN1CC2(CCC2)OC1=O)S(=O)(=O)C(F)(F)F [1-86]	–	4 (90%-100% of herbicidal efficacy or phytotoxicity)	4 (90%-100% of herbicidal efficacy or phytotoxicity)	4 (90%-100% of herbicidal efficacy or phytotoxicity)	4 (90%-100% of herbicidal efficacy or phytotoxicity)	4 (90%-100% of herbicidal efficacy or phytotoxicity)	4 (90%-100% of herbicidal efficacy or phytotoxicity)	1 (1%-39% of herbicidal efficacy or phytotoxicity)	10	–	–	–	–	–	–
COC(=O)N(c1ccccc1CN1CC(C)(c2ccccc2)OC1=O)S(=O)(=O)C(F)(F)F (centres unmarked) [1-142]	–	4 (90%-100% of herbicidal efficacy or phytotoxicity)	4 (90%-100% of herbicidal efficacy or phytotoxicity)	4 (90%-100% of herbicidal efficacy or phytotoxicity)	4 (90%-100% of herbicidal efficacy or phytotoxicity)	4 (90%-100% of herbicidal efficacy or phytotoxicity)	4 (90%-100% of herbicidal efficacy or phytotoxicity)	1 (1%-39% of herbicidal efficacy or phytotoxicity)	≧30	–	–	–	–	–	–
